Results taken from EP1401829B1, “NOVEL HETEROCYCLIC ANTIBACTERIAL COMPOUNDS” (Microbiotix, Inc., priority 2001, dated 2002).
Converted amounts (≈) assume the structure as drawn. Like-named read-outs stand apart in the source and are kept apart here.

Columns and labels:
E. fecalis = test: Minimal Inhibitory Concentration (MIC) determination, 96 well plates; assay type: cell-based, Enterococcus fecalis; settings: Enterococcus, read-out: MIC (µg/ml) E. fecalis
Method: (§1) The following methods were used to characterize representative compounds. Minimal Inhibitory Concentration (MIC) determinations. MIC values were determined in 96 well plates, with bacterial growth monitored at OD 600 nm in 200µl following an initial bacterial seeding at approximately 1x10^5 colony forming units (CFU)/ml. Each drug is evaluated at five concentrations, with five data points at each dilution. MIC values (µg/ml) were determined against actively growing cultures in Heart-Brain Infusion (HBI) medium. Cell growth in cultures supplemented with a test compound was calculated as a percent of control at OD 600 nm after 16 to 18 hours at 37°C. […] Polymerase IIIC (Pol IIIC) assay. DNA polymerase activity (or inhibition thereof) was measured in a 96-well plate format. B. subtilis Pol IIIC was isolated as described by Hammond and Brown (Protein Expr. Purif., 3: 65-70 (1992)). Each 25 µl assay contained 30 mM Tris, pH 7.5, 10 mM magnesium acetate, 4 mM dithiothreitol, 20% glycerol, with 25 µM dATP, dCTP, dGTP and 10 µM dTTP (^3H-labelled at 1.44 Ci/mmole) and 0.4 mg/ml activated calf thymus DNA as substrates, as described previously (see Barnes et al, op. cit). Assays were initiated by the addition of 0.025 to 0.06 units of enzyme 1 unit is the amount required to incorporate 250 pmoles of [^3H] dTMP in a standard assay), incubated for 10 minutes at 30°C and terminated by the addition of 200 µl of cold 10% trichloroacetic acid (TCA),10 mM sodium pyrophosphate. Precipitated labeled DNA was collected on glass fiber filter plates, washed, dried, and counted in a liquid scintillation counter. Determination of Ki values. DNA polymerase activity was measured in a 96-well plate format in the absence of dGTP or dATP, depending on the structure of the test compound. Each 25 µl assay contained 30 mM Tris, pH 7.5, 10 mM magnesium acetate, 4 mM dithiothreitol, 20% glycerol, with 25 µM dATP, dCTP, and 10 µM dTTP (^3H-labelled at 1.44 Ci/mmole) and 0.4 mg/ml activated calf thymus DNA as substrates, as described previously. […] Assays were initiated by the addition of 0.025 to 0.06 units of enzyme (1 unit is the amount required to incorporate 250 pmoles of [^3H] dTMP in a standard assay), incubated for 10 minutes at 30 °C and terminated by the addition of 200 µl of cold 10% trichloroacetic acid, 10 mM sodium pyrophosphate. Precipitated labeled DNA was collected on glass fiber filter plates, washed, dried, and counted in a liquid scintillation counter. Ki is the concentration of test compound that reduces the control polymerase IIIC activity by 50 percent.
(§2) MIC values were determined for the Gram positive bacteria Bacillus subtilis, Staphylococcus aureus (two strains), Enterococcus fecalis, Enterococcus fecium, and for the Gram negative bacterium Escherichia coli.

S.aureus (Smith) = test: as above; assay type: cell-based, Staphylococcus aureus; settings: Staphylococcus aureus, read-out: MIC (µg/ml) S.aureus (Smith)
Method: as §1, §2

B. subtilis Pol IIIC = molecular target: T1, B. subtilis Pol IIIC (Bacillus subtilis, UniProt P13267); test: Polymerase IIIC (Pol IIIC) assay, determination of Ki values; assay type: biochemical; settings: Ki (µM) Pol IIIC, assay in absence of dGTP or dATP; Ki is the concentration that reduces control polymerase IIIC activity by 50 percent
T1 construct: made in house
Method: as §1

B. subtilis = test: Minimal Inhibitory Concentration (MIC) determination, 96 well plates; assay type: cell-based, Bacillus subtilis; settings: Bacillus subtilis, read-out: MIC (µg/ml) B. subtilis
Method: as §1, §2

E. fecium = test: as above; assay type: cell-based, Enterococcus fecium; settings: Enterococcus, read-out: MIC (µg/ml) E. fecium
Method: as §1, §2

S. aureus = test: as above; assay type: cell-based, Staphylococcus aureus; settings: Staphylococcus aureus, read-out: MIC (µg/ml) S. aureus
Method: (§3) The following methods were used to characterize representative compounds. Minimal Inhibitory Concentration (MIC) determinations. MIC values were determined in 96 well plates, with bacterial growth monitored at OD 600 nm in 200µl following an initial bacterial seeding at approximately 1x10^5 colony forming units (CFU)/ml. Each drug is evaluated at five concentrations, with five data points at each dilution. MIC values (µg/ml) were determined against actively growing cultures in Heart-Brain Infusion (HBI) medium. Cell growth in cultures supplemented with a test compound was calculated as a percent of control at OD 600 nm after 16 to 18 hours at 37°C. This plate format conserves test compound and provides precise, quantitative data with low standard deviation determinations. Polymerase IIIC (Pol IIIC) assay. DNA polymerase activity (or inhibition thereof) was measured in a 96-well plate format. B. subtilis Pol IIIC was isolated as described by Hammond and Brown (Protein Expr. Purif., 3: 65-70 (1992)). Each 25 µl assay contained 30 mM Tris, pH 7.5, 10 mM magnesium acetate, 4 mM dithiothreitol, 20% glycerol, with 25 µM dATP, dCTP, dGTP and 10 µM dTTP (^3H-labelled at 1.44 Ci/mmole) and 0.4 mg/ml activated calf thymus DNA as substrates, as described previously (see Barnes et al, op. cit). Assays were initiated by the addition of 0.025 to 0.06 units of enzyme 1 unit is the amount required to incorporate 250 pmoles of [^3H] dTMP in a standard assay), incubated for 10 minutes at 30°C and terminated by the addition of 200 µl of cold 10% trichloroacetic acid (TCA),10 mM sodium pyrophosphate. Precipitated labeled DNA was collected on glass fiber filter plates, washed, dried, and counted in a liquid scintillation counter. Determination of Ki values. DNA polymerase activity was measured in a 96-well plate format in the absence of dGTP or dATP, depending on the structure of the test compound. Each 25 µl assay contained 30 mM Tris, pH 7.5, 10 mM magnesium acetate, 4 mM dithiothreitol, 20% glycerol, with 25 µM dATP, dCTP, and 10 µM dTTP (^3H-labelled at 1.44 Ci/mmole) and 0.4 mg/ml activated calf thymus DNA as substrates, as described previously. To each well were added 2 µl of compound solution to give final concentrations ranging from 20 - 0.027 µg/ml in the assay. Assays were initiated by the addition of 0.025 to 0.06 units of enzyme (1 unit is the amount required to incorporate 250 pmoles of [^3H] dTMP in a standard assay), incubated for 10 minutes at 30 °C and terminated by the addition of 200 µl of cold 10% trichloroacetic acid, 10 mM sodium pyrophosphate. Precipitated labeled DNA was collected on glass fiber filter plates, washed, dried, and counted in a liquid scintillation counter. Ki is the concentration of test compound that reduces the control polymerase IIIC activity by 50 percent.
as §2

E. coli = test: as above; assay type: cell-based, Escherichia coli; settings: Escherichia coli; HBI medium, 16 to 18 hours at 37°C; read-out: MIC (µg/ml) E. coli
Method: as §3, §2

[1] = HBI medium, 16 to 18 hours at 37°C

T1 sequence (P13267 whole entry): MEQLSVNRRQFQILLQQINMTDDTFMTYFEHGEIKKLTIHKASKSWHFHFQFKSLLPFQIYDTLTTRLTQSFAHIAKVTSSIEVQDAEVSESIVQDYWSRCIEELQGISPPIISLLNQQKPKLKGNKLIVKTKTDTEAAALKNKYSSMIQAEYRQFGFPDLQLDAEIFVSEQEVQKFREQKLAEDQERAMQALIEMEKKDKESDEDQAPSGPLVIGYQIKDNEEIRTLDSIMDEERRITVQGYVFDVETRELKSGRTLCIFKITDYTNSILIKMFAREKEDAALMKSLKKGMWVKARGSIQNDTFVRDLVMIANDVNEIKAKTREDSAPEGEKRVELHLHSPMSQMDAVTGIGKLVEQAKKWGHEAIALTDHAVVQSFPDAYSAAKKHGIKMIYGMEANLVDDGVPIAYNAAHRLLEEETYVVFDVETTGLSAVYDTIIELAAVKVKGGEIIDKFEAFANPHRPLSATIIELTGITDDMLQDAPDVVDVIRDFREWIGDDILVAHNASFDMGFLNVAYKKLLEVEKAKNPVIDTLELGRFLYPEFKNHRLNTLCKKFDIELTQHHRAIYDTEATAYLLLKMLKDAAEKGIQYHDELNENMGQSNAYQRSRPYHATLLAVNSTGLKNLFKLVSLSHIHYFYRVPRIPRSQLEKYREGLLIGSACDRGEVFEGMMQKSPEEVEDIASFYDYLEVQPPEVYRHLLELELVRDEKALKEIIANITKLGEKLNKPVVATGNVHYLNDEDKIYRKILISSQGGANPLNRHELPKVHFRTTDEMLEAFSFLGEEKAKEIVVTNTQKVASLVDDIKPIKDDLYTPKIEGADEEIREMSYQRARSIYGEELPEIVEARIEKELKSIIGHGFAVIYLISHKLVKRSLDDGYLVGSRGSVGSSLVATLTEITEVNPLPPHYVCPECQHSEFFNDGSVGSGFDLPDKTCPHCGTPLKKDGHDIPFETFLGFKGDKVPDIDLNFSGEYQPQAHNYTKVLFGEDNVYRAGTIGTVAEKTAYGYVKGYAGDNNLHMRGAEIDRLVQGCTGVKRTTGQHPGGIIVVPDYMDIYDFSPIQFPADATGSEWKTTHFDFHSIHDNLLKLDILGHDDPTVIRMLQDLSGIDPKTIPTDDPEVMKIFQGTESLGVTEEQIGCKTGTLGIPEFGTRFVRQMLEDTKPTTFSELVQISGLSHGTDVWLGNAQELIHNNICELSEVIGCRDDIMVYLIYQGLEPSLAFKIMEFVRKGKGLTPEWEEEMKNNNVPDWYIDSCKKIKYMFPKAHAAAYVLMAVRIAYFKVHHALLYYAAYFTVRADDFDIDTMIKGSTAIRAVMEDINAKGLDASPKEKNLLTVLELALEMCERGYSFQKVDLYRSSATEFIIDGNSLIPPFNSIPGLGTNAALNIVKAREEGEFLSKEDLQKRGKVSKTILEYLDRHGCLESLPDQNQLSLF

| Compound | MIC (E. fecalis; [1]) | MIC (S.aureus (Smith); [1]) | Ki (B. subtilis Pol IIIC) | MIC (B. subtilis; [1]) | MIC (E. fecium; [1]) | MIC (S. aureus; [1]) | MIC (E. coli) | MIC (E. fecalis) | MIC (S.aureus (Smith)) | MIC (B. subtilis) | MIC (E. fecium) | MIC (S. aureus) |
| --- | --- | --- | --- | --- | --- | --- | --- | --- | --- | --- | --- | --- |
| CCc1cc(Nc2cc(=O)n(CCCCCN3CCCC4CN(c5cc6c(cc5F)c(=O)c(C(=O)O)cn6C5CC5)CC43)c(=O)[nH]2)ccc1C (stereo not drawn) [Compound 82, 3-{5-[1-(1-cyclopropyl-3-carboxy-4-oxo-6-fluoro-7-quinolyl)-3-(1,3-diazabicyclononyl)]pentyl}-6-(3-ethyl-4-methylanilino)uracil] | 20 µg/mL (≈ 29.2 µM) | 1.25 µg/mL (≈ 1.83 µM) | 0.041 µM | 1.25 µg/mL (≈ 1.83 µM) | > 80 µg/mL | 2.5 µg/mL (≈ 3.65 µM) | > 80 µg/mL | – | – | – | – | – |
| Cc1ccc(Nc2cc(=O)n(CCCCN3CCN(c4cc5c(cc4F)c(=O)c(C(=O)O)cn5C4CC4)CC3)c(=O)[nH]2)cc1Cl [Compound 64, 3-{4-[1-(1-cyclopropyl-3-carboxy-4-oxo-6-fluoro-7-quinolyl)-4-piperazinyl]butyl}-6-(3-chloro-4-methylanilino)uracil] | 1.87 µg/mL (≈ 2.94 µM) | 0.625 µg/mL (≈ 0.981 µM) | 0.055 µM | 0.313 µg/mL (≈ 0.491 µM) | 3.7 µg/mL (≈ 5.81 µM) | 1.25 µg/mL (≈ 1.96 µM) | 7.5 µg/mL (≈ 11.8 µM) | – | – | – | – | – |
| CCc1cc(Nc2cc(=O)n(CCCCCN3CCOC4CN(c5c(F)cc6c(=O)c(C(=O)O)cn(CC)c6c5F)CC43)c(=O)[nH]2)ccc1C (stereo not drawn) [Compound 85, 3-{5-[1-(1-ethyl-3-carboxy4-oxo-6,8-difluoro-7-quinolyl)-3-(5-oxa-1,3-diazabicyclononyl)]pentyl)-6-(3-ethyl-4-methylanilino)uracil] | 7.5 µg/mL (≈ 10.8 µM) | 6.1 µg/mL (≈ 8.81 µM) | 0.059 µM | 0.313 µg/mL (≈ 0.452 µM) | 12.5 µg/mL (≈ 18 µM) | 5 µg/mL (≈ 7.22 µM) | > 80 µg/mL | – | – | – | – | – |
| CCc1cc(Nc2cc(=O)n(CCCCN3CCN(c4c(F)cc5c(=O)c(C(=O)O)cn(C6CC6)c5c4F)CC3CO)c(=O)[nH]2)ccc1C (stereo not drawn) [Compound 91, 3-{4-[1-(1-cyclopropyl-3-carboxy-4-oxo-6,8-difluoro-7-quinolyl)-3-hydroxymethyl-4-piperazinyl]butyl}-6-(3-ethyl-4-methylanilino)uracil] | 2.5 µg/mL (≈ 3.68 µM) | 0.625 µg/mL (≈ 0.921 µM) | 0.011 µM | 0.235 µg/mL (≈ 0.346 µM) | 2.5 µg/mL (≈ 3.68 µM) | 1.25 µg/mL (≈ 1.84 µM) | > 80 µg/mL | – | – | – | – | – |
| CCc1cccc(Nc2cc(=O)n(CCCCN3CCN(c4cc5c(cc4F)c(=O)c(C(=O)O)cn5C4CC4)CC3)c(=O)[nH]2)c1 [Compound 66, 3-{4-[1-(1-cyclopropyl-3-carboxy-4-oxo-6-fluoro-7-quinolyl)-4-piperazinyl]butyl}-6-(3-ethylanilino)uracil] | 1.25 µg/mL (≈ 2.03 µM) | 0.625 µg/mL (≈ 1.01 µM) | 0.26 µM | 0.313 µg/mL (≈ 0.508 µM) | 3.7 µg/mL (≈ 6 µM) | 0.95 µg/mL (≈ 1.54 µM) | 6.1 µg/mL (≈ 9.89 µM) | – | – | – | – | – |
| CCc1cc(Nc2cc(=O)n(CCCCN3CCN(c4cc5c(cc4F)c(=O)c(C(=O)O)cn5C4CC4)C[C@H]3C)c(=O)[nH]2)ccc1C [Compound 95, (R)-3-{4-[1-(1-cyclopropyl-3-carboxy-4-oxo-6-fluoro-7-quinolyl)-3-methyl-4-piperazinyl]butyl}-6-(3-ethyl-4-methylanilino)uracil] | 0.625 µg/mL (≈ 0.969 µM) | 0.625 µg/mL (≈ 0.969 µM) | 0.012 µM | 0.235 µg/mL (≈ 0.364 µM) | 0.625 µg/mL (≈ 0.969 µM) | 1.25 µg/mL (≈ 1.94 µM) | 10 µg/mL (≈ 15.5 µM) | – | – | – | – | – |
| CCc1cc(Nc2cc(=O)n(CCCCN3CCOC4CN(c5cc6c(cc5F)c(=O)c(C(=O)O)cn6C5CC5)CC43)c(=O)[nH]2)ccc1C (stereo not drawn) [Compound 87, 3-{4-[1-(1-cyclopropyl-3-carboxy-4-oxo-6-fluoro-7-quinolyl)-3-(5-oxa-1,3-diazabicyclononyl)]butyl}-6-(3-ethyl-4-methylanilino)uracil] | 2.5 µg/mL (≈ 3.72 µM) | 0.625 µg/mL (≈ 0.929 µM) | 0.088 µM | 0.313 µg/mL (≈ 0.465 µM) | 7.5 µg/mL (≈ 11.1 µM) | 1.87 µg/mL (≈ 2.78 µM) | > 40 µg/mL | – | – | – | – | – |
| CCc1cc(Nc2cc(=O)n(CCCCN3CCN(c4cc5c(cc4F)c(=O)c(C(=O)O)cn5-c4ccc(F)cc4F)C[C@H]3C)c(=O)[nH]2)ccc1C [Compound 90, (R)-3-{4-[1-(1-{2,4-difluorophenyl}-3-carboxy-4-oxo-6-fluoro-7-quinolyl)-3-methyl-4-piperazinyl]butyl}-6-(3-ethyl-4-methylanilino)uracil] | 1.25 µg/mL (≈ 1.74 µM) | 0.313 µg/mL (≈ 0.437 µM) | 0.017 µM | 0.236 µg/mL (≈ 0.329 µM) | 1.25 µg/mL (≈ 1.74 µM) | 0.625 µg/mL (≈ 0.872 µM) | > 40 µg/mL | – | – | – | – | – |
| CCc1cc(Nc2cc(=O)n(CCCCCN3CC4CN(c5cc6c(cc5F)c(=O)c(C(=O)O)cn6C5CC5)CC4C3)c(=O)[nH]2)ccc1C (stereo not drawn) [Compound 86, 3-{5-[1-(1-cyclopropyl-3-carboxy-4-oxo-6-fluoro-7-quinolyl)-4-(1,4-diazabicyclooctyl)]pentyl}-6-(3-ethyl-4-methylanilino)uracil] | 10 µg/mL (≈ 14.9 µM) | 2.5 µg/mL (≈ 3.73 µM) | 0.054 µM | 2.5 µg/mL (≈ 3.73 µM) | 40 µg/mL (≈ 59.6 µM) | 5 µg/mL (≈ 7.45 µM) | > 80 µg/mL | – | – | – | – | – |
| CCc1cc(Nc2ccc(NC(=O)N3CCN(c4cc5c(cc4F)c(=O)c(C(=O)O)cn5CC)CC3)c(=O)[nH]2)ccc1C [Compound 77, 3-{[1-(1-ethyl-3-carboxy-4-oxo-6-fluoro-7-quinolyl)-4-piperazinyl]carboxamido}-6-(3-ethyl-4-methylanilino)-2-pyridone] | – | – | – | – | – | – | > 80 µg/mL | > 80 µg/mL | 2.5 µg/mL (≈ 4.25 µM) | 5 µg/mL (≈ 8.49 µM) | > 80 µg/mL | 2.5 µg/mL (≈ 4.25 µM) |
